Among the data in patent publication US10336729B2, “4-cyano-benzyl carbamimidoylcarbamate derivatives and their use as AOC3 inhibitors” (Boehringer Ingelheim International GmbH, priority 2016, dated 2019) are IC50 values, retold here.

Molecules are shown by their SMILES.

The target in the test is AOC3 (Homo sapiens (Human), UniProt Q16853). In words: MAO-Glo AOC3 assay. Particulars: recombinant CHO cells overexpressing AOC3 enzyme. The format is biochemical. The source says: The MAO-Glo™ Assay (commercial available from PROMEGA, #V1402) provides a sensitive method for the measurement of monoamine oxidase (MAO) activity (Valley, M. P. et al., 2006, Anal. Biochem. 359: 238-246) from a variety of tissues, biofluids or recombinant expressed or purified enzymes. As substrate a derivate of the beetle luciferin ((4S)-4,5-dihydro-2-(6-hydroxybenzothiazolyl)-4-thiazole-carboxylic acid) is used, which is oxidized at a primary amine moiety. After a spontaneous elimination and a catalyzed esterase reaction, the turnover of the luciferine by the luciferase is recorded as a signal of AOC3 activity.
AOC3, sequence (Q16853 whole entry): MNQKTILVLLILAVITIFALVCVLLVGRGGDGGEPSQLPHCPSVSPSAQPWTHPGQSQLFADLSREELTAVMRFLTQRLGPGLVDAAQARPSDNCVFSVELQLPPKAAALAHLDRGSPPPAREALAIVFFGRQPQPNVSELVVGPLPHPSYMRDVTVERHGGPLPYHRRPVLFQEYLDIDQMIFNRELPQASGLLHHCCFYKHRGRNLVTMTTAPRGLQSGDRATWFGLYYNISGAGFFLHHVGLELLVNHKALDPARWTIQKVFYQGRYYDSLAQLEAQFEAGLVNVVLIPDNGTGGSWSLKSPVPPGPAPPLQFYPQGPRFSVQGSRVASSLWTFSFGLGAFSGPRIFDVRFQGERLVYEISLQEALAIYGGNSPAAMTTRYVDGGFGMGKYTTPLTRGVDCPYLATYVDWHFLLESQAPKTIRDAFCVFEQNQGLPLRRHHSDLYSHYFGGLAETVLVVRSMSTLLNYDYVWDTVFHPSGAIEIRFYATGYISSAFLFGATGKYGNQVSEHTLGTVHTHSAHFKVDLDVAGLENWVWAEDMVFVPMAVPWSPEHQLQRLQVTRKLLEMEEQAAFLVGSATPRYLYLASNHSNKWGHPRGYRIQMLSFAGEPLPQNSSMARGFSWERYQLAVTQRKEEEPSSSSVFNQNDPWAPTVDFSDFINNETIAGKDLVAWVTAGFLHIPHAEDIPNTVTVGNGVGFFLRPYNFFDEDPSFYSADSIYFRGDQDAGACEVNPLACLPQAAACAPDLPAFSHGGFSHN
An aliquot of 3 μL of the compound dilution is added to a 384 well plate (Optiplate, PS, flat bottom, white, PERKIN ELMER, #6007290) with a final DMSO concentration of 6.6%. Recombinant CHO cells, overexpressing the human (1500 cells/well), mouse (1000 cells/well) or rat (500 cells/well) AOC3 enzyme are diluted in reaction buffer and added in a volume of 15 μL to the wells. After incubation for 20 minutes at 37° C., 2 μL of MAO substrate (dissolved in DMSO at 16 mM, adjusted to assay concentration in reaction buffer to a final assay concentration of 20 μM) is added and further incubated for 60 minutes at 37° C. The turnover of the substrate is determined by the addition of 20 μL of the detection-mix which was generated by the addition of reconstitution buffer with esterase (PROMEGA, #V1402) to the luciferine detection reagent (PROMEGA, #V1402). After an incubation period of 20 minutes, the luminescent signal is measured with Envision 2104 Multilabel Reader (PERKIN ELMER).
By IC50 is commonly meant the midpoint of a concentration-inhibition curve. As for `N#Cc1ccc(N2CCN(c3cc(COC(=O)NC(=N)N)c(F)cc3C#N)CC2)cc1` [Example 3.001], the IC50 came to 393 nM.
In the case of `Cc1cc(N2CCN(c3c(C#N)ccc(COC(=O)NC(=N)N)c3F)CC2)ccn1` [Example 2.004] it was 3 nM; in that of `Cc1ccc(C2CCN(c3c(C#N)ccc(COC(=O)NC(=N)N)c3F)CC2)cc1` [Example 1.072], 211 nM.
`N#Cc1ccc(COC(=O)NC(=N)N)c(F)c1N1CCC(O)(c2ccccc2)CC1` [Example 1.085]: the 50% inhibitory concentration (IC50) came to 280 nM.
Then `Cc1ccc(N2CCN(c3c(C#N)ccc(COC(=O)NC(=N)N)c3F)CC2)nc1` [Example 1.039], with 42 nM; and `N#Cc1ccc(COC(=O)NC(=N)N)c(F)c1N1CCN(c2ccc(C(F)(F)F)cc2)CC1` [Example 1.073], with 103 nM.
Then `CN(C)c1ccc(N2CCN(c3c(C#N)ccc(COC(=O)NC(=N)N)c3F)CC2)nn1` [Example 1.064], with 33 nM.
Then `N#Cc1ccc(N2CCN(c3c(C#N)ccc(COC(=O)NC(=N)N)c3F)CC2)nc1` [Example 1.055], with 115 nM; and `Cc1cnc(C2CCN(c3c(C#N)ccc(COC(=O)NC(=N)N)c3F)CC2)o1` [Example 2.005], with 20 nM.
Regarding `N#Cc1ccc(COC(=O)NC(=N)N)c(F)c1N1CCC(N2CCCC2=O)CC1` [Example 1.088], the 50% inhibitory concentration (IC50) turned out to be 889 nM.
As for `N#Cc1ccc(COC(=O)NC(=N)N)c(F)c1N1CCC(c2cn3ccccc3n2)CC1` [Example 1.025], the 50% inhibitory concentration (IC50) came out at 5 nM.
Then `Cc1cccc(N2CCN(c3c(C#N)ccc(COC(=O)NC(=N)N)c3F)CC2)c1` [Example 1.066], with 20 nM.
In the case of `N#Cc1ccc(COC(=O)NC(=N)N)c(F)c1N1CCN(c2ncccn2)CC1` [Example 1.081] it was 45 nM.
`CC(=O)N[C@@H](C)c1ccc(C2CN(c3c(C#N)ccc(COC(=O)NC(=N)N)c3F)C2)cc1` [Example 1.015]: the IC50 is 19 nM.
In the case of `N#Cc1ccc(COC(=O)NC(=N)N)c(F)c1N1CC=C(c2ccccc2)CC1` [Example 1.046] it was 27 nM; in that of `Cc1ccc(N2CCN(c3c(C#N)ccc(COC(=O)NC(=N)N)c3F)CC2)nn1` [Example 1.068], 55 nM; in that of `N#Cc1ccc(COC(=O)NC(=N)N)c(F)c1N1CCC(c2ncc(Cl)cn2)CC1` [Example 1.037], 54 nM.
Then `N#Cc1ccc(COC(=O)NC(=N)N)c(F)c1N1CC=C(c2ccc(Cl)cc2)CC1` [Example 1.057], with 6 nM.
Then `N#Cc1ccc(COC(=O)NC(=N)N)c(F)c1N1CCN(C2CCCC2)C(=O)C1` [Example 1.053], with 15 nM.
`N#Cc1ccc(C2CN(c3c(C#N)ccc(COC(=O)NC(=N)N)c3F)C2)cc1` [Example 1.013]: the IC50 is 19 nM.
In the case of `N#Cc1ccc(COC(=O)NC(=N)N)c(F)c1N1CCN(c2ncncn2)CC1` [Example 1.082] it was 57 nM; in that of `N#Cc1ccc(COC(=O)NC(=N)N)c(F)c1N1CCC(C2CCN(S(N)(=O)=O)CC2)CC1` [Example 1.079], 9 nM.
In the case of `COc1ncc(N2CCN(c3cc(COC(=O)NC(=N)N)cc(F)c3C#N)CC2)cn1` [Example 1.020] it was 70 nM.
In the case of `N#Cc1ccc(COC(=O)NC(=N)N)c(F)c1N1CCN(c2ccccc2)C(=O)C1` [Example 1.065] it was 131 nM.
`COc1ccc(N2CCN(c3c(C#N)ccc(COC(=O)NC(=N)N)c3F)CC2)cc1` [Example 1.074]: the half-inhibitory concentration (IC50) was 128 nM.
In the case of `Cc1cccc(C2CCN(c3c(C#N)ccc(COC(=O)NC(=N)N)c3F)CC2)c1` [Example 1.047] it was 65 nM; in that of `N#Cc1ccc(COC(=O)NC(=N)N)c(F)c1N1CCN(c2ccncc2)CC1` [Example 2.003], 7 nM.
Then `N#Cc1ccc(COC(=O)NC(=N)N)c(F)c1N1CCN(c2ccccc2F)CC1` [Example 1.059], with 151 nM; and `Cc1ccc(N2CCN(c3c(C#N)ccc(COC(=O)NC(=N)N)c3F)CC2)cc1` [Example 1.041], with 177 nM.
